Laboratory results reported in patent publication US6552007B2, “Use of somatostatin analogs for the delivery of anti-tumor drugs to tumor cells” (priority 2000, dated 2003).
Like-named read-outs stand apart in the source and are kept apart here. Where a SMILES comes first, the peptide text is derived from it. Bridges are numbered along the chain shown (N, C = ends). [ ]: non-standard residue; d: D form.

How the values were obtained:
[1] = biological target: human somatostatin receptors subtype 2 (Homo sapiens, UniProt P30874); conditions: cited from earlier work
Chain of human somatostatin receptors subtype 2 (P30874 whole entry): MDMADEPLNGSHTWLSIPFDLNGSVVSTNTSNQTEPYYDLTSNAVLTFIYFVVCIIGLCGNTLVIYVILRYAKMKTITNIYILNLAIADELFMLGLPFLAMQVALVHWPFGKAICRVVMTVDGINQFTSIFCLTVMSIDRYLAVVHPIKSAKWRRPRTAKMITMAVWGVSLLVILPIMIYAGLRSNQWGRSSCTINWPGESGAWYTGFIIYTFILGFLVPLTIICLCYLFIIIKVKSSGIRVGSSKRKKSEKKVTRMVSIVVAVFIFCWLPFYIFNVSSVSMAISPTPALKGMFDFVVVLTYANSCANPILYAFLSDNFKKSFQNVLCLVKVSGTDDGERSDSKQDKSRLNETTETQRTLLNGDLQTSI

[2] = system: MCF-7 cells; experiment: Cell death of MCF-7 cells after 1 day treatment; type: cell-based; conditions: 10^−5 M
[3] = system: CHO cells; experiment: Cell death of CHO cells after 1 day treatment; type: cell-based; conditions: 10^−5 M
[4] = biological target: human somatostatin receptors subtype 4 (Homo sapiens, UniProt P31391); conditions: cited from earlier work
Chain of human somatostatin receptors subtype 4 (P31391 whole entry): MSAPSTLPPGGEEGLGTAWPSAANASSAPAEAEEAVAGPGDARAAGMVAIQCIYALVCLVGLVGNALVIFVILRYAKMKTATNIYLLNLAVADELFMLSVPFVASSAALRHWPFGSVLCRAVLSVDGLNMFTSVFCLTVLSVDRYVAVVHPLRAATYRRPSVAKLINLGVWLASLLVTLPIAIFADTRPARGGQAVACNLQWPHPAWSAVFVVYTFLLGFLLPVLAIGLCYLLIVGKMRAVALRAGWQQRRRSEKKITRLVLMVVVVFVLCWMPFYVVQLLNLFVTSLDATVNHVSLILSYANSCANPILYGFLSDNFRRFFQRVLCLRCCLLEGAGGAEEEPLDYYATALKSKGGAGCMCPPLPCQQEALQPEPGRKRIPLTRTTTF

[5] = system: MCF-7 cells; experiment: Fluorescence microscopy binding of fluorescein-labeled octreotide to MCF-7 cells; conditions: 30 min, 4° C.; for binding (fluorescence labeling) to MCF-7 cells: 100 μg in 1 ml buffer
Protocol: Panels B, D, F and H which correspond to panels A, C, E and G, respectively, show the fluorescence labeled octreotide binding to the MCF-7 cells and the CHO. The MCF-7 cells and CHO cells are inclubated with 100 μg of fluorescein labeled octerotide in 1 ml of a buffer for 30 minutes at 4 ° C., after which the cells are washed with PBS, fixed with 4% paraformaldehye and subject to fluorescence microscopy.

[6] = system: CHO cells; conditions: 30 min, 4° C.; for binding (fluorescence labeling) to CHO cells: 100 μg in 1 ml buffer; for binding to CHO cells at higher concentration of labeled octreotide: higher concentration (500 μg/ml)
Protocol: FIG. 2 depicts fluorescence micrographs of MCF-7 and CHO cells after incubation with fluorescin-octreotide at 4° C. for 30 min. […] Cell morphology was shown at A, C, E, and G. Bar=20 μm;
The MCF-7 cells and CHO cells are inclubated with 100 μg of fluorescein labeled octerotide in 1 ml of a buffer for 30 minutes at 4 ° C., after which the cells are washed with PBS, fixed with 4% paraformaldehye and subject to fluorescence microscopy.

[7] = system: MCF-7 cells; experiment: Internalization of labeled octreotide by MCF-7 cells (somatostatin receptor-mediated endocytosis); type: cell-based; conditions: one hour incubation, 100 μg/ml, 37° C.
[8] = system: MCF-7 cells; conditions: paclitaxel at 10^−6 M, 1 day
[9] = listed as fluorescin-octreotide

## C[C@@H](O)[C@@H]1NC(=O)[C@H](CCCCN)NC(=O)[C@@H](Cc2c[nH]c3ccccc23)NC(=O)[C@H](Cc2ccccc2)NC(=O)[C@@H](NC(=O)[C@H](N)Cc2ccccc2)CSSC[C@@H](C(=O)N[C@H](CO)[C@@H](C)O)NC1=O [octreotide, D-Phe-c[Cys-Phe-D-Trp-Lys-Thr-Cys]-Thr(ol)]
[1]
  affinity to human somatostatin receptor subtype 2: high affinities

## CC(=O)O[C@H]1C(=O)[C@@]2(C)[C@H]([C@H](OC(=O)c3ccccc3)[C@]3(O)C[C@H](OC(=O)[C@H](O)[C@@H](NC(=O)c4ccccc4)c4ccccc4)C(C)=C1C3(C)C)[C@]1(OC(C)=O)CO[C@@H]1C[C@@H]2O [paclitaxel, reference compound]
[2]
  death of MCF-7 cells: causes death of both MCF-7 cells and CHO cells
[3]
  death of CHO cells: causes death of both MCF-7 cells and CHO cells

## CC(C)[C@@H]1NC(=O)[C@H](CCCCN)NC(=O)[C@@H](Cc2c[nH]c3ccccc23)NC(=O)[C@H](Cc2ccc(O)cc2)NC(=O)[C@@H](NC(=O)[C@H](N)Cc2ccccc2)CSSC[C@@H](C(=O)N[C@@H](Cc2c[nH]c3ccccc23)C(N)=O)NC1=O [vapreotide, D-Phe-c[Cys-Tyr-D-Trp-Lys-Val-Cys]-Trp-NH2] (H-[dF]CY[dW]KVCW-NH2; disulfide 2-7)
[4]
  affinity to human somatostatin receptor subtype 4: high affinities

## Fluorescein-Octreotide [labeled octreotide]
[5]
  binding (fluorescence labeling) to MCF-7 cells: binds to the MCF-7 cells
[5]; [9]
  binding (fluorescence labeling) to MCF-7 cells: labeling is confined to the MCF-7 cell surface
[5]; excessive amount (1,000 fold) of nonfluorescent octreotide
  binding to MCF-7 cells in the presence of excessive non-labeled octreotide: disappears
[6]
  binding (fluorescence labeling) to CHO cells: not to the CHO cells
  binding to CHO cells at higher concentration of labeled octreotide: does not bind to the CHO cells
[6]; [9]
  binding (fluorescence labeling) to CHO cells: No labeling can be seen among the CHO cells
  binding to CHO cells at higher concentration of labeled octreotide: No labeling
[7]
  internalization into MCF-7 cytosol: internalized into the MCF-7 cytosol
[7]; [9]
  internalization into MCF-7 cytosol: internalization

## Paclitaxel-Glutary 1-Octreotide [octreotide conjugated paclitaxel]
[2]
  cell specificity (MCF-7 versus CHO cells): specific to MCF-7 cells
  death of MCF-7 cells: induces only the death of the MCF-7 cells
[3]
  death of CHO cells: not of the CHO cells
[8]
  anti-tumor activity through disrupting microtubule formation, compared with non-conjugated paclitaxel: same anti- tumor activity through disrupting microtubule formation
[8]; listed as octreotide-conjugated taxol
  anti-tumor activity through disrupting microtubule formation, compared with non-conjugated paclitaxel: virtually retains the cellular functions of taxol
